{"source": "patent US20070203126A1", "about": "“Synergistic Mixtures of O-Phenylphenol and Dazomet” (priority 2002, published 2007)", "tested_on": "artificial bacterial consortium containing approximately equal numbers of six bacterial strains", "test": "bacterial growth inhibition dose protocol in synthetic white water (O.D. 650 nm, 4 hours)", "format": "cell-based", "settings": "for Synergy Index / Synergy Index**: SI<1 synergism; for ppm Dithiol: Dithiol alone or in blend with NaOPP giving 50% inhibition; for ppm BIT: BIT alone or in blend with NaOPP giving 50% inhibition; for ppm BCDMH: BCDMH alone or in blend with NaOPP giving 50% inhibition; for ppm BNS: BNS alone or in blend with NaOPP giving 50% inhibition; for ppm DBNPA: DBNPA alone or in blend with NaOPP giving 50% inhibition", "procedure": "The actives were evaluated in synthetic white water with pH values of 5.5 and 8.0. The materials were tested against an artificial bacterial consortium containing approximately equal numbers of six bacterial strains. […] Two of the strains were Kiebsiella pneumoia (ATCC 13883) and Pseudomonas aeruginosa (ATCC 15442). The other four strains were isolated from papermill systems and have been identified as Curtobacterium flaccumfaciens, Burkhlderia cepacia, Bacillus maroccanus, and Pseudomonas glethei. Each strain was inoculated at 37° C. overnight, then suspended in sterile saline. Equal volumes of each strain were then combined to prepare the consortium. The bacterial consortium was distributed into the wells of a microtiter plate in the presence or absence of various concentrations of the active materials. The microtiter plates were incubated at 37° C. Optical density (O.D.) readings at 650 nm were taken initially (t0) and after time 4 hours (t4) of incubation.\nThe raw data was converted to “bacterial growth inhibition percentages” according to the following formula: % Inhibition=[(a−b)÷a]·100 […]\na=(O.D. of control at tn)−(O.D. of control at t0) b=(O.D. of treatment at tn)−(O.D. of treatment at t0)\nThe inhibition values can be plotted versus dosage for each active and the particular blend. […] The synergism index (SI) was calculated by the equations described by F. C. Kull, P. C. Eisman, H. D. Sylwestrowicz, and R. L. Mayer (1961), Applied Microbiology 9, 538-541. The values are based on the amount needed to achieve a specified end point. […] Synergy Index (SI)=(QA÷Qa)+(QB÷Qb) […]\nQA=quantity of compound A in mixture, producing the end point\nQa=quantity of compound A1 acting alone, producing the end point\nQB=quantity of compound B in mixture, producing the end point\nQb=quantity of compound B1 acting alone, producing the end point\nIf SI is less than 1, synergism exists; if SI is greater than 1, antagonism exists, if SI is equal to 1, an additive effect exists.", "key": {"[1]": {"settings": "pH 5.5, DIMTS & NaOPP, end point 50% inhibition"}, "[2]": {"settings": "pH 8.0, DIMTS & NaOPP, Calculated Using 40% Inhibition of Bacterial Growth"}, "[3]": {"settings": "pH 5.5, Dithiol & NaOPP, end point 50% inhibition"}, "[4]": {"settings": "pH 8.0, Dithiol & NaOPP, end point 50% inhibition"}, "[5]": {"settings": "pH 5.5, NaOCl & NaOPP, Calculated Using 30% Inhibition of Bacterial Growth"}, "[6]": {"settings": "pH 5.5, BCDMH & NaOPP, end point 50% inhibition"}, "[7]": {"settings": "pH 5.5, BIT & NaOPP, end point 50% inhibition"}, "[8]": {"settings": "pH 5.5, BNS & NaOPP, end point 50% inhibition"}, "[9]": {"settings": "pH 5.5, DBNPA & NaOPP, end point 50% inhibition"}, "[10]": {"settings": "pH 5.5, Sulfone & NaOPP, end point 50% inhibition"}, "[11]": {"settings": "pH 8.0, BCDMH & NaOPP, end point 50% inhibition"}, "[12]": {"settings": "pH 8.0, BIT & NaOPP, end point 50% inhibition"}, "[13]": {"settings": "pH 8.0, BNS & NaOPP, end point 50% inhibition"}, "[14]": {"settings": "pH 8.0, DBNPA & NaOPP, end point 50% inhibition"}, "[15]": {"settings": "pH 8.0, Sulfone & NaOPP, end point 50% inhibition"}}}
{"smiles": "Cc1ccc(S(=O)(=O)C(I)I)cc1", "note": "[DIMTS, Diiodomethyl-p-tolylsulfone]", "values": [{"measurement": "Synergy Index", "setting": "[1]", "result": 1.00}, {"measurement": "ppm DIMTS", "setting": "pH 5.5, DIMTS alone or in blend with NaOPP giving 50% inhibition, ppm active", "result": 31.65, "unit": "ppm"}, {"measurement": "Synergy Index**", "setting": "[2]", "result": 1.00}, {"measurement": "ppm DIMTS", "setting": "pH 8.0, DIMTS alone or in blend with NaOPP producing the end point, footnote: 40% Inhibition of Bacterial Growth", "result": 22.84, "unit": "ppm"}]}
{"smiles": "O=c1ssc(Cl)c1Cl", "note": "[Dithiol, 4,5-Dichloro-1,2-dithiol-3-one]", "values": [{"measurement": "Synergy Index", "setting": "[3]", "result": 1.00}, {"measurement": "ppm Dithiol", "setting": "pH 5.5, ppm active", "result": 0.073, "unit": "ppm"}, {"measurement": "Synergy Index", "setting": "[4]", "result": 1.00}, {"measurement": "ppm Dithiol", "setting": "pH 8.0, ppm active", "result": 0.16, "unit": "ppm"}]}
{"smiles": "OCl", "note": "[NaOCl, Sodium Hypochlorite]", "values": [{"measurement": "Synergy Index**", "setting": "[5]", "result": 1.00}, {"measurement": "ppm NaOCl", "setting": "pH 5.5, NaOCl alone or in blend with NaOPP producing the end point, footnote: 30% Inhibition of Bacterial Growth", "result": 55.27, "unit": "ppm"}]}
{"smiles": "[Na+].[O-]c1ccccc1-c1ccccc1", "note": "[NaOPP, Sodium orthophenylphenate]", "values": [{"measurement": "Synergy Index", "setting": "[6]", "result": 1.00}, {"measurement": "Synergy Index", "setting": "[7]", "result": 1.00}, {"measurement": "Synergy Index", "setting": "[8]", "result": 1.00}, {"measurement": "Synergy Index", "setting": "[9]", "result": 1.00}, {"measurement": "Synergy Index", "setting": "[1]", "result": 1.00}, {"measurement": "Synergy Index", "setting": "pH 5.5, Dazomet & NaOPP, end point 50% inhibition", "result": 1.00}, {"measurement": "Synergy Index", "setting": "[3]", "result": 1.00}, {"measurement": "Synergy Index", "setting": "pH 5.5, Iso & NaOPP, end point 50% Inhibition", "result": 1.00}, {"measurement": "Synergy Index**", "setting": "[5]", "result": 1.00}, {"measurement": "ppm NaOPP", "setting": "pH 5.5, NaOPP alone or in blend with BCDMH giving 50% inhibition, ppm active", "result": 78.40, "unit": "ppm"}, {"measurement": "ppm NaOPP", "setting": "pH 5.5, NaOPP alone or in blend with BIT giving 50% inhibition, ppm active", "result": 84.96, "unit": "ppm"}, {"measurement": "ppm NaOPP", "setting": "pH 5.5, NaOPP alone or in blend with BNS giving 50% inhibition, ppm active", "result": 90.47, "unit": "ppm"}, {"measurement": "ppm NaOPP", "setting": "pH 5.5, NaOPP alone or in blend with DBNPA giving 50% inhibition, ppm active", "result": 88.38, "unit": "ppm"}, {"measurement": "ppm NaOPP", "setting": "pH 5.5, NaOPP alone or in blend with DIMTS giving 50% inhibition, ppm active", "result": 84.10, "unit": "ppm"}, {"measurement": "ppm NaOPP", "setting": "pH 5.5, NaOPP alone or in blend with Iso giving 50% Inhibition, ppm active", "result": 82.73, "unit": "ppm"}, {"measurement": "ppm NaOPP", "setting": "pH 5.5, NaOPP alone or in blend with NaOCl producing the end point, footnote: 30% Inhibition of Bacterial Growth", "result": 54.92, "unit": "ppm"}, {"measurement": "ppm NaOPP", "setting": "pH 5.5, NaOPP alone or in blend with Sulfone giving 50% inhibition, ppm active", "result": 56.78, "unit": "ppm"}, {"measurement": "Synergy Index", "setting": "[10]", "result": 1.00}, {"measurement": "Synergy Index", "setting": "[11]", "result": 1.00}, {"measurement": "Synergy Index", "setting": "[12]", "result": 1.00}, {"measurement": "Synergy Index", "setting": "[13]", "result": 1.00}, {"measurement": "Synergy Index", "setting": "[14]", "result": 1.00}, {"measurement": "Synergy Index**", "setting": "[2]", "result": 1.00}, {"measurement": "Synergy Index", "setting": "pH 8.0, Dazomet & NaOPP, end point 50% inhibition", "result": 1.00}, {"measurement": "Synergy Index", "setting": "[4]", "result": 1.00}, {"measurement": "Synergy Index", "setting": "pH 8.0, Iso & NaOPP, end point 50% Inhibition", "result": 1.00}, {"measurement": "ppm NaOPP", "setting": "pH 8.0, NaOPP alone or in blend with BIT giving 50% inhibition, ppm active", "result": 116.41, "unit": "ppm"}, {"measurement": "ppm NaOPP", "setting": "pH 8.0, NaOPP alone or in blend with BNS giving 50% inhibition, ppm active", "result": 123.16, "unit": "ppm"}, {"measurement": "ppm NaOPP", "setting": "pH 8.0, NaOPP alone or in blend with DBNPA giving 50% inhibition, ppm active", "result": 137.13, "unit": "ppm"}, {"measurement": "ppm NaOPP", "setting": "pH 8.0, NaOPP alone or in blend with DIMTS producing the end point, footnote: 40% Inhibition of Bacterial Growth", "result": 97.74, "unit": "ppm"}, {"measurement": "ppm NaOPP", "setting": "pH 8.0, NaOPP alone or in blend with Dazomet giving 50% inhibition, ppm active", "result": 158.32, "unit": "ppm"}, {"measurement": "ppm NaOPP", "setting": "pH 8.0, NaOPP alone or in blend with Dithiol giving 50% inhibition, ppm active", "result": 132.71, "unit": "ppm"}, {"measurement": "ppm NaOPP", "setting": "pH 8.0, NaOPP alone or in blend with Iso giving 50% Inhibition, ppm active", "result": 114.14, "unit": "ppm"}, {"measurement": "ppm NaOPP", "setting": "pH 8.0, NaOPP alone or in blend with Sulfone giving 50% inhibition, ppm active", "result": 67.8, "unit": "ppm"}, {"measurement": "Synergy Index", "setting": "[15]", "result": 1.00}]}
{"smiles": "O=c1[nH]sc2ccccc12", "note": "[BIT, 1,2-Benzisothiazolin-3-one]", "values": [{"measurement": "Synergy Index", "setting": "[7]", "result": 1.00}, {"measurement": "ppm BIT", "setting": "pH 5.5, ppm active", "result": 1.46, "unit": "ppm"}, {"measurement": "Synergy Index", "setting": "[12]", "result": 1.00}, {"measurement": "ppm BIT", "setting": "pH 8.0, ppm active", "result": 2.86, "unit": "ppm"}]}
{"smiles": "CC1(C)C(=O)N(Cl)C(=O)N1Br", "note": "[BCDMH, 1-Bromo-3-chloro-5,5-dimethylhydantoin]", "values": [{"measurement": "Synergy Index", "setting": "[6]", "result": 1.00}, {"measurement": "ppm BCDMH", "setting": "pH 5.5, ppm active", "result": 14.60, "unit": "ppm"}, {"measurement": "Synergy Index", "setting": "[11]", "result": 1.00}, {"measurement": "ppm BCDMH", "setting": "pH 8.0, ppm active", "result": 34.37, "unit": "ppm"}]}
{"smiles": "O=[N+]([O-])C(Br)=Cc1ccccc1", "note": "[BNS, Bromonitrostyrene]", "values": [{"measurement": "Synergy Index", "setting": "[8]", "result": 1.00}, {"measurement": "ppm BNS", "setting": "pH 5.5, ppm active", "result": 1.19, "unit": "ppm"}, {"measurement": "Synergy Index", "setting": "[13]", "result": 1.00}, {"measurement": "ppm BNS", "setting": "pH 8.0, ppm active", "result": 3.08, "unit": "ppm"}]}
{"smiles": "N#CC(Br)(Br)C(N)=O", "note": "[DBNPA, 2,2-Dibromo-3-nitrilopropionamide]", "values": [{"measurement": "Synergy Index", "setting": "[9]", "result": 1.00}, {"measurement": "ppm DBNPA", "setting": "pH 5.5, ppm active", "result": 1.69, "unit": "ppm"}, {"measurement": "Synergy Index", "setting": "[14]", "result": 1.00}, {"measurement": "ppm DBNPA", "setting": "pH 8.0, ppm active", "result": 3.01, "unit": "ppm"}]}
{"smiles": "O=S(=O)(C(Cl)(Cl)Cl)C(Cl)(Cl)Cl", "note": "[Sulfone, Bis(trichlormethyl)sulfone]", "values": [{"measurement": "Synergy Index", "setting": "[10]", "result": 1.00}, {"measurement": "ppm Sulfone", "setting": "pH 5.5, Sulfone alone or in blend with NaOPP giving 50% inhibition, ppm active", "result": 1.154, "unit": "ppm"}, {"measurement": "Synergy Index", "setting": "[15]", "result": 1.00}, {"measurement": "Ppm Sulfone", "setting": "pH 8.0, Sulfone alone or in blend with NaOPP giving 50% inhibition, ppm active", "result": 1.34, "unit": "ppm"}]}
